In the supplement of paper PMC13380429:

What was measured:
Vero E6 [1] = experiment: drug sensitivity score (DSS) for viability; higher = more toxic; extreme values may be limits of the assay; conditions: 72 h
HepG2 [2] = experiment: as above; conditions: 72 h
Caco-2 [3] = experiment: as above; conditions: 72 h
U2OS [4] = experiment: as above; conditions: 72 h
A549-ACE2 = experiment: drug-induced phospholipidosis relative to tamoxifen; higher = more phospholipidosis
[5] = test system: A549-ACE2 infected with SARS-CoV-2; experiment: morphology score (similarity to uninfected cells); higher = more like uninfected cells; conditions: 24 h
Vero E6 [6] = experiment: cell viability relative to DMSO; higher = less toxic; conditions: 72 h
HepG2 [7] = experiment: as above; conditions: 72 h
Caco-2 [8] = experiment: as above; conditions: 72 h
U2OS [9] = experiment: as above; conditions: 72 h
[10] = test system: A549-ACE2 infected with SARS-CoV-2; experiment: cell count relative to DMSO; higher = less toxic; conditions: 24 h
Vero E6 [11] = experiment: relative viability EC50 (midpoint between 100% and the lowest measured viability); higher = less toxic; conditions: 72 h
HepG2 [12] = experiment: as above; conditions: 72 h
Caco-2 [13] = experiment: as above; conditions: 72 h
U2OS [14] = experiment: as above; conditions: 72 h
[15] = test system: A549-ACE2 infected with SARS-CoV-2; experiment: SARS-CoV-2 infection rate relative to DMSO; higher = more infection; conditions: 24 h
Calu-3 [16] = experiment: drug sensitivity score (DSS) for viability; higher = more toxic; extreme values may be limits of the assay; conditions: 72 h
Calu-3 [17] = experiment: cell viability relative to DMSO; higher = less toxic; conditions: 72 h
Calu-3 [18] = experiment: relative viability EC50 (midpoint between 100% and the lowest measured viability); higher = less toxic; conditions: 72 h

C=C1C(=O)O[C@@H]2C[C@@]3(C)CCC[C@H](C)C3=C[C@H]12 [alantolactone]
Conditions | drug sensitivity score | relative viability EC50 [µM]
Caco-2 [3] | 0 | –
Caco-2 [13] | – | > 10
HepG2 [2] | 0 | –
HepG2 [12] | – | > 10
U2OS [4] | 0 | –
U2OS [14] | – | > 10
Vero E6 [1] | 0 | –
Vero E6 [11] | – | > 10

drug-induced phospholipidosis [%], A549-ACE2
Conditions | 0.3 µM | 0.833333 µM | 3.33333 µM | 6.66667 µM | 10 µM | 30 µM
24 h | 0.44 | -0.52 | -2.33 | -1.69 | -1.05 | 3.99
48 h | 0.11 | -0.81 | -1.92 | -1 | 0.04 | 3.39
72 h | 2.31 | -0.225 | -1.83 | -1.58 | 0.848 | 3.9

Conditions | SARS-CoV-2 infection rate, [15] [%] | cell count, [10] [%] | cell viability, Caco-2 [8] [%] | cell viability, HepG2 [7] [%] | cell viability, U2OS [9] [%] | cell viability, Vero E6 [6] [%] | morphology score, [5]
1 nM | – | – | 94.9 | 94.8 | 99.2 | 94.7 | –
10 nM | – | – | 99 | 102 | 96.4 | 95.8 | –
100 nM | – | – | 101 | 106 | 101 | 95.8 | –
0.3 µM | 104 | 100 | – | – | – | – | 0.1
1000 nM | – | – | 99.8 | 104 | 96.4 | 96.8 | –
3 µM | 92 | 98 | – | – | – | – | -0.12
10 µM | 91 | 97 | – | – | – | – | -0.07
10000 nM | – | – | 89.7 | 117 | 96.6 | 101 | –
30 µM | 35 | 9 | – | – | – | – | 0.21

O=C(O)CCCCCCCC(=O)O [azelaic-acid]
Conditions | drug sensitivity score | relative viability EC50 [µM]
Caco-2 [3] | 0 | –
Caco-2 [13] | – | > 10
HepG2 [2] | 0 | –
HepG2 [12] | – | > 10
U2OS [4] | 0 | –
U2OS [14] | – | > 10

drug-induced phospholipidosis [%], A549-ACE2
Conditions | 0.3 µM | 0.833333 µM | 3.33333 µM | 6.66667 µM | 10 µM | 30 µM
24 h | -0.21 | -0.53 | -0.9 | -0.71 | -1.82 | 0.53
48 h | 0.97 | -0.84 | -1.1 | 0.62 | -0.42 | 2.28
72 h | 3.56 | 0.0211 | 0.507 | 0.701 | 1.19 | 4.29

Conditions | SARS-CoV-2 infection rate, [15] [%] | cell count, [10] [%] | cell viability, Caco-2 [8] [%] | cell viability, HepG2 [7] [%] | cell viability, U2OS [9] [%] | morphology score, [5]
1 nM | – | – | 105 | 102 | 101 | –
10 nM | – | – | 97 | 92.3 | 103 | –
100 nM | – | – | 103 | 115 | 99.4 | –
0.3 µM | 94 | 103 | – | – | – | 0.2
1000 nM | – | – | 105 | 96.4 | 106 | –
3 µM | 100 | 95 | – | – | – | -0.03
10 µM | 98 | 102 | – | – | – | 0.06
10000 nM | – | – | 95.6 | 99 | 97.7 | –
30 µM | 103 | 102 | – | – | – | 0.01

CC(C)C[C@H](NC(=O)[C@H](Cc1ccccc1)NC(=O)c1cnccn1)B(O)O [bortezomib]
Conditions | drug sensitivity score | relative viability EC50 [µM]
Caco-2 [3] | 38.6 | –
Caco-2 [13] | – | 0.0053
Calu-3 [16] | 38.3 | –
Calu-3 [18] | – | 0.0064
HepG2 [2] | 35.9 | –
HepG2 [12] | – | 0.0116
U2OS [4] | 35.5 | –
U2OS [14] | – | 0.0126
Vero E6 [1] | 35.2 | –
Vero E6 [11] | – | 0.0132

Conditions | SARS-CoV-2 infection rate, [15] [%] | cell count, [10] [%] | cell viability, Caco-2 [8] [%] | cell viability, Calu-3 [17] [%] | cell viability, HepG2 [7] [%] | cell viability, U2OS [9] [%] | cell viability, Vero E6 [6] [%] | morphology score, [5]
1 nM | – | – | 104 | 103 | 122 | 104 | 111 | –
10 nM | – | – | 20.1 | 26.4 | 59.1 | 63.9 | 66.4 | –
100 nM | – | – | 4.1 | 4.4 | 1.8 | -0.1 | 3 | –
0.3 µM | 45 | 57 | – | – | – | – | – | 0.26
1000 nM | – | – | 5.9 | 5 | -0.2 | -0.4 | 0.2 | –
3 µM | 21 | 30 | – | – | – | – | – | 0.33
10 µM | 16 | 27 | – | – | – | – | – | 0.29
10000 nM | – | – | 6.2 | 2.4 | -0.3 | -0.4 | 0.1 | –
30 µM | 23 | 24 | – | – | – | – | – | 0.23

CC[C@@H]1C(=O)N(C)c2cnc(Nc3ccc(C(=O)N[C@H]4CC[C@H](N5CCN(CC6CC6)CC5)CC4)cc3OC)nc2N1C(C)C [volasertib]
Conditions | drug sensitivity score | relative viability EC50 [µM]
Caco-2 [3] | 11.5 | –
Caco-2 [13] | – | 0.36
Calu-3 [16] | 7 | –
Calu-3 [18] | – | 1.67
HepG2 [2] | 23.2 | –
HepG2 [12] | – | 0.081
U2OS [4] | 14.7 | –
U2OS [14] | – | 0.293
Vero E6 [1] | 16.3 | –
Vero E6 [11] | – | 0.386

cell viability [%]
Conditions | Caco-2 [8] | Calu-3 [17] | HepG2 [7] | U2OS [9] | Vero E6 [6]
1 nM | 104 | 112 | 106 | 99 | 101
10 nM | 93.2 | 86.8 | 104 | 99.4 | 98
100 nM | 74 | 91.3 | 42.7 | 87.2 | 90.6
1000 nM | 57.8 | 83.3 | 17.6 | 29.1 | 18.3
10000 nM | 26.7 | 22.1 | 9.1 | 18.7 | 1.5

COc1cc(C(=O)NS(=O)(=O)c2ccccc2C)ccc1Cc1cn(C)c2ccc(NC(=O)OC3CCCC3)cc12 [zafirlukast]
Conditions | drug sensitivity score | relative viability EC50 [µM]
Caco-2 [3] | 0 | –
Caco-2 [13] | – | > 10
Calu-3 [16] | 0 | –
Calu-3 [18] | – | > 10
HepG2 [2] | 0 | –
HepG2 [12] | – | > 10
U2OS [4] | 0 | –
U2OS [14] | – | > 10
Vero E6 [1] | 0 | –
Vero E6 [11] | – | > 10

cell viability [%]
Conditions | Caco-2 [8] | Calu-3 [17] | HepG2 [7] | U2OS [9] | Vero E6 [6]
1 nM | 92.3 | 96.9 | 104 | 92.7 | 96.2
10 nM | 104 | 101 | 101 | 98.4 | 92.5
100 nM | 105 | 97.2 | 109 | 103 | 91.2
1000 nM | 97.8 | 100 | 94.6 | 105 | 94.2
10000 nM | 99.2 | 110 | 96.6 | 100 | 94.6
